Results reported in the supplement of paper PMC10307832.

How the values were obtained:
Assay in all cases: relative viability (nuclei count vs DMSO), 5 days (fraction); higher = more cells survive
[1] = system: NCI-H1650
Summary of the method: (§1)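 Lung cancer cell lines were pin-tool dosed in 1536-well plates on the day after seeding, with either a lone drug or a fixed anchor-drug dose plus five library-drug doses (not always all listed) in √10 steps. Nuclei were counted on 4× images after 5 days. Relative viability is the ratio of treated-well to vehicle-well nuclei counts, with each value a median of duplicate plates.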

[2] = system: NCI-H2009
Summary of the method: as §1

[3] = system: NCI-H1975
Summary of the method: as §1

[4] = system: PC-3 [JPC-3]
Summary of the method: as §1

[5] = system: EPLC-272H
Summary of the method: as §1

[6] = system: NCI-H1651
Summary of the method: as §1

[7] = system: NCI-H2170
Summary of the method: as §1

[8] = system: NCI-H441
Summary of the method: as §1

[9] = system: NCI-H2087
Summary of the method: as §1

[10] = system: LC-2-ad
Summary of the method: as §1

[11] = system: UMC-11
Summary of the method: as §1

[12] = system: NCI-H2228
Summary of the method: as §1

[13] = system: H3255
Summary of the method: as §1

[14] = system: HARA
Summary of the method: as §1

[15] = system: LOU-NH91
Summary of the method: as §1

[16] = system: SW 1573
Summary of the method: as §1

[17] = system: NCI-H23
Summary of the method: as §1

[18] = system: NCI-H2085
Summary of the method: as §1

[19] = system: NCI-H727
Summary of the method: as §1

[20] = system: NCI-H2023
Summary of the method: as §1

[21] = system: NCI-H838
Summary of the method: as §1

[22] = system: SW 900
Summary of the method: as §1

[23] = system: NCI-H650
Summary of the method: as §1

CN1CCN(CCOc2cc(OC3CCOCC3)c3c(Nc4c(Cl)ccc5c4OCO5)ncnc3c2)CC1 [Saracatinib] + COc1cccc2cc(-c3nc([C@H]4CC[C@H](C(=O)O)CC4)n4ncnc(N)c34)[nH]c12 [OSI-027] (partner 0.5 µM)
relative viability ([1]; first compound 0.02 µM): 0.611
relative viability ([1]; first compound 0.2 µM): 0.396
relative viability ([1]; first compound 0.6325 µM): 0.524
relative viability ([1]; first compound 2 µM): 0.254
relative viability ([2]; first compound 0.02 µM): 0.628
relative viability ([2]; first compound 0.2 µM): 0.547
relative viability ([2]; first compound 0.6325 µM): 0.579
relative viability ([2]; first compound 2 µM): 0.357
relative viability ([3]; first compound 0.02 µM): 0.678
relative viability ([3]; first compound 0.2 µM): 0.585
relative viability ([3]; first compound 0.6325 µM): 0.686
relative viability ([3]; first compound 2 µM): 0.403
relative viability ([4]; first compound 0.02 µM): 0.793
relative viability ([4]; first compound 0.2 µM): 0.718
relative viability ([4]; first compound 0.6325 µM): 0.61
relative viability ([4]; first compound 2 µM): 0.436
relative viability ([5]; first compound 0.02 µM): 0.304
relative viability ([5]; first compound 0.2 µM): 0.27
relative viability ([5]; first compound 0.6325 µM): 0.348
relative viability ([5]; first compound 2 µM): 0.278
relative viability ([6]; first compound 0.02 µM): 0.694
relative viability ([6]; first compound 0.2 µM): 0.657
relative viability ([6]; first compound 0.6325 µM): 0.81
relative viability ([6]; first compound 2 µM): 0.485
relative viability ([7]; first compound 0.02 µM): 0.694
relative viability ([7]; first compound 0.2 µM): 0.459
relative viability ([7]; first compound 0.6325 µM): 0.811
relative viability ([7]; first compound 2 µM): 0.53
relative viability ([8]; first compound 0.02 µM): 0.614
relative viability ([8]; first compound 0.2 µM): 0.532
relative viability ([8]; first compound 0.6325 µM): 0.875
relative viability ([8]; first compound 2 µM): 0.623
relative viability ([9]; first compound 0.02 µM): 0.609
relative viability ([9]; first compound 0.2 µM): 0.393
relative viability ([9]; first compound 0.6325 µM): 0.953
relative viability ([9]; first compound 2 µM): 0.742
relative viability ([10]; first compound 0.02 µM): 0.844
relative viability ([10]; first compound 0.2 µM): 0.804
relative viability ([10]; first compound 0.6325 µM): 0.881
relative viability ([10]; first compound 2 µM): 0.728
relative viability ([11]; first compound 0.02 µM): 0.503
relative viability ([11]; first compound 0.6325 µM): 0.453
relative viability ([11]; first compound 2 µM): 0.339
relative viability ([12]; first compound 0.02 µM): 0.719
relative viability ([12]; first compound 0.2 µM): 0.343
relative viability ([12]; first compound 0.6325 µM): 0.529
relative viability ([12]; first compound 2 µM): 0.381
relative viability ([13]; first compound 0.02 µM): 0.587
relative viability ([13]; first compound 0.2 µM): 0.589
relative viability ([13]; first compound 0.6325 µM): 0.542
relative viability ([13]; first compound 2 µM): 0.284
relative viability ([14]; first compound 0.02 µM): 0.544
relative viability ([14]; first compound 0.2 µM): 0.263
relative viability ([14]; first compound 0.6325 µM): 0.483
relative viability ([14]; first compound 2 µM): 0.205
relative viability ([15]; first compound 0.02 µM): 0.756
relative viability ([15]; first compound 0.2 µM): 0.556
relative viability ([15]; first compound 0.6325 µM): 0.544
relative viability ([15]; first compound 2 µM): 0.413
relative viability ([16]; first compound 0.02 µM): 0.624
relative viability ([16]; first compound 0.2 µM): 0.55
relative viability ([16]; first compound 0.6325 µM): 0.667
relative viability ([16]; first compound 2 µM): 0.456
relative viability ([17]; first compound 0.02 µM): 0.649
relative viability ([17]; first compound 0.2 µM): 0.425
relative viability ([17]; first compound 0.6325 µM): 0.659
relative viability ([17]; first compound 2 µM): 0.503
relative viability ([18]; first compound 0.02 µM): 0.839
relative viability ([18]; first compound 0.2 µM): 0.723
relative viability ([18]; first compound 0.6325 µM): 0.772
relative viability ([18]; first compound 2 µM): 0.78
relative viability ([19]; first compound 0.02 µM): 0.496
relative viability ([19]; first compound 0.2 µM): 0.463
relative viability ([19]; first compound 0.6325 µM): 0.529
relative viability ([19]; first compound 2 µM): 0.485
relative viability ([20]; first compound 0.02 µM): 0.473
relative viability ([20]; first compound 0.2 µM): 0.394
relative viability ([20]; first compound 0.6325 µM): 0.316
relative viability ([20]; first compound 2 µM): 0.273
relative viability ([21]; first compound 0.02 µM): 0.348
relative viability ([21]; first compound 0.2 µM): 0.302
relative viability ([21]; first compound 0.6325 µM): 0.401
relative viability ([21]; first compound 2 µM): 0.235
relative viability ([22]; first compound 0.02 µM): 0.616
relative viability ([22]; first compound 0.2 µM): 0.559
relative viability ([22]; first compound 0.6325 µM): 0.575
relative viability ([22]; first compound 2 µM): 0.443
relative viability ([23]; first compound 0.02 µM): 0.602
relative viability ([23]; first compound 0.2 µM): 0.504
relative viability ([23]; first compound 0.6325 µM): 0.524
relative viability ([23]; first compound 2 µM): 0.493
